Where a SMILES comes first, the peptide text is derived from it.
Columns and labels:
[1] = Stability of peptides in mouse serum; format: in vitro ADME; conditions: C57BL/6 mouse serum, 10 ppm/reaction, 24 h vs 0 h (without mixing with serum), formic acid precipitation, LC (ZORBAX Eclipse C18) with ELSD; one range printed for both peptides; Figure S6A
Method: collected after centrifugation at 13,000 × g for 10 min and stored at -20 ℃. To analyze, we used the ZORBAX Eclipse C18 Column (2.6 × 250 mm, 5 μm) in the Agilent 1200 Infinity LC and kept the column temperature at 40 ℃. Injection volume from samples was 20 μL and for the mobile phase, MS grade water with 0.1% formic acid (‘a’) and MS grade acetonitrile (‘b’) were flowed at the velocity of 1 mL/min. The gradient per sample was ‘a’ (5%)/’b’(95%) for 0 and 5 min, ‘a’ (90%)/’b’(10%) for 10 min, and ‘a’ (40%)/’b’(60%) for 15 min. Agilent 1260 infinity ELSD was used with an LC stack for detection. […]

[2] = molecular target: STrEP-tagged TM4SF5WT (UniProt O14894); assay: streptavidin pull-down and immunoblot; conditions: SNU449 cells with STrEP-TM4SF5; 50 kDa band, IP: STrEP lanes
Sequence of STrEP-tagged TM4SF5WT (O14894 whole entry): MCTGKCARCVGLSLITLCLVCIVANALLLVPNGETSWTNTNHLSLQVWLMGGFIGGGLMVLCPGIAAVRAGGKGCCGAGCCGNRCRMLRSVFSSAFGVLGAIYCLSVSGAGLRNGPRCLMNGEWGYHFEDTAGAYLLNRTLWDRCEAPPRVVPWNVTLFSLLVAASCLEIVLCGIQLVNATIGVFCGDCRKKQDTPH

[3] = system: SNU449Tp cells expressing FAK-KD; assay: Transwell migration of FAK-KD-expressing SNU449Tp cells with PP2 or PP3; format: cell-based, human; conditions: SNU449Tp cells infected with FAK-KD adenovirus, 10 μM, transwell migration 12 h, 10% FBS in lower chamber; Figure S1C
[4] = system: SNU449T7 cells stably expressing TM4SF5; assay: Mouse tumor xenograft of TM4SF5-expressing SNU449 cells; format: in vivo, BALB/c-nu/nu mice
Method: Mouse tumor xenograft: Four-week-old female or male BALB/c-nu/nu mice were purchased from Orient Co. Ltd (Seungnam, Korea). All animal procedures were performed in accordance with the Seoul National University Laboratory Animal Maintenance Manual and with Institutional Review Board approval (SNU-130311-6-2, SNU-140423-11-7). Mice were housed in a specific pathogen-free room under controlled temperature and humidity. Viable SNU449T7 cells (5 × 10^6) stably expressing TM4SF5 or PLC/PRF/5 cells (10^7) endogenously expressing TM4SF5 were resuspended in sterile PBS and injected subcutaneously into 5-week-old mice (n = 5 or 6, respectively). […] Body weight and tumor volume, which was determined as described previously, were measured daily.
Figure 7 TM4SF5 C-terminal peptides suppress TM4SF5-mediated tumorigenesis and metastasis. […] (E) Degradation of Oregon Green® 488-conjugated gelatin were analyzed for SNU761 cells stably expressing mock (mock) or TM4SF5WT with the 10 μM CPPs treatment for 24 h (mean ± SD values). (F) TM4SF5-null SNU449Cp (Cp) and stably TM4SF5-expressing SNU449Tp (Tp) cells were treated with the 10 μM CPPs for 24 h and then analyzed for transwell migration for 4 h (mean ± SD values in the graph). […] Surface nodules were counted and the mean ± SD values are presented (graph). […]

[5] = system: SNU761-TM4SF5 cells; assay: Transwell chemotactic migration of SNU761-TM4SF5 cells with PP2; format: cell-based, human; conditions: PP2 10 μM, transwell migration 4 h, 10% FBS; Figure 3F and S2B
Method: SNU761 cells stably expressing TM4SF5WT were transiently transfected with control siRNA against a scrambled sequence (siControl) or PTP1B (siPTP1B) for 48 h before undergoing the Transwell migration assay for 4 h. Cells were treated with the CPPs before being loaded into the upper chambers. The cells were then analyzed for migration or invasion using Transwell chambers with 8-μm pores (Corning Inc., Corning, NY, USA), where the bottom chamber was filled with 1% BSA alone (in serum-free media) or normal culture media containing 10% FBS as explained previously. After incubation, the number of migrated cells from randomly saved images (n = 10) per condition was counted. The data are graphed as the mean ± standard deviation (SD) for each experimental condition.
Figure S2. TM4SF5-mediated invasion and migration involves PTP1B-regulated c-Src activity. (A) SNU761 cells stably expressing mock or TM4SF5WT were transiently transfected without (No T/F) or with c-Src WT, c-Src SH432, or c-Src SH1 expression constructs for 48 h prior to invasive ECM degradation analysis for 4 h. (B) SNU761 cells stably expressing TM4SF5WT were transiently transfected with control siRNA against a scrambled sequence (siControl) or a sequence in PTP1B (siPTP1B) for 48 h, prior to transwell migration assay for 4 h. […]

Compound | peptide remaining after incubation in mouse serum [1] | response (relative band intensity (ImageJ ratio)) [2] | also measured
CC[C@H](C)[C@H](NC(=O)[C@@H](NC(=O)[C@H](CS)NC(=O)[C@@H]1CCCN1C(=O)[C@H](CCCNC(=N)N)NC(=O)[C@H](CCCNC(=N)N)NC(=O)[C@H](CCCNC(=N)N)NC(=O)[C@H](CCC(N)=O)NC(=O)[C@H](CCCNC(=N)N)NC(=O)[C@H](CCCNC(=N)N)NC(=O)[C@H](CCCCN)NC(=O)[C@H](CCCCN)NC(=O)[C@@H](N)CCCNC(=N)N)C(C)C)C(=O)N[C@@H](CCSC)C(=O)NCC(=O)N[C@@H](CC(=O)O)C(=O)N[C@@H](CS)C(=O)N[C@@H](CCCNC(=N)N)C(=O)N[C@@H](CCCCN)C(=O)N[C@@H](CCCCN)C(=O)N[C@@H](CCC(N)=O)C(=O)N[C@@H](CC(=O)O)C(=O)N[C@H](C(=O)N1CCC[C@H]1C(=O)N[C@@H](Cc1c[nH]cn1)C(=O)O)[C@@H](C)O [TcxC] (H-RKKRRQRRRPCVIMGDCRKKQDTPH-OH) | 44-65% |  | 
c-Src-SH321 Y419F; Y530F |  | 0 | 
c-Src-SH321 Y419F |  | 1 | 
CC(C)(C)n1nc(-c2ccc(Cl)cc2)c2c(N)ncnc21 [PP2] |  |  | residual migration of FAK-KD cells [3]: abolished; TM4SF5-dependent tumor formation in xenograft ([4]; 3 mg/kg subcutaneous injection every day for 10 days, n = 4, Figure S5A): suppressed TM4SF5-dependent tumor formation; effect on xenograft tumor growth, 15-day treatment ([4]; n = 6, 15 days, PP2 3 mg/kg, TCsr 0.111 nmol/g, TcxC 0.095 nmol/g, Figure S5B): suppressive effect; chemotactic migration of SNU761-TM4SF5 cells [5]: abolished
C[C@@H](O)[C@H](NC(=O)[C@@H]1CCCN1C(=O)[C@H](CCCNC(=N)N)NC(=O)[C@H](CCCNC(=N)N)NC(=O)[C@H](CCCNC(=N)N)NC(=O)[C@H](CCC(N)=O)NC(=O)[C@H](CCCNC(=N)N)NC(=O)[C@H](CCCNC(=N)N)NC(=O)[C@H](CCCCN)NC(=O)[C@H](CCCCN)NC(=O)[C@@H](N)CCCNC(=N)N)C(=O)N[C@@H](CS)C(=O)N[C@@H](CCCCN)C(=O)N1CCC[C@H]1C(=O)N[C@@H](CC(=O)O)C(=O)N[C@@H](CCCCN)C(=O)NCC(=O)N[C@@H](CCC(N)=O)C(=O)N[C@@H](CCCNC(=N)N)C(=O)N[C@@H](Cc1c[nH]cn1)C(=O)N[C@@H](CC(=O)O)C(=O)O [TCsr] (H-RKKRRQRRRPTCKPDKGQRHD-OH) | 44-65% |  | 
c-Src-SH321 Y530F |  | 0 | 

— publication PMC8315060, “N-terminus-independent activation of c-Src via binding to a tetraspan(in) TM4SF5 in hepatocellular carcinoma is abolished by the TM4SF5 C-terminal peptide application” (Theranostics, 2021)
